Experimental data reported in the kinase profiling compilation of Christmann-Franck et al. (2016).

Legend:
Assay in all cases: KINOMEscan competition binding
CDK18 (human) = CDK18 (human) (UniProt Q07002); settings: compound 1.0 µM
MAPK8 (human) = MAPK8 (human) (UniProt P45983); settings: compound 1.0 µM
PI4KB (human) = PI4KB (human) (UniProt Q9UBF8); settings: compound 1.0 µM
PTK2 (human) = PTK2 (human) (UniProt Q05397); settings: compound 1.0 µM
ADCK4 (human) = ADCK4 (human) (UniProt Q96D53); settings: compound 1.0 µM
MAP3K11 (human) = MAP3K11 (human) (UniProt Q16584); settings: compound 1.0 µM
MAPKAPK5 (human) = MAPKAPK5 (human) (UniProt Q8IW41); settings: compound 1.0 µM
[1] = tested on: EGFR (human), P00533 [752-759 del]; settings: compound 1.0 µM
[2] = tested on: PIK3CA (human), P42336 [E542K]; settings: compound 1.0 µM
VRK2 (human) = VRK2 (human) (UniProt Q86Y07); settings: compound 1.0 µM
VRK2 (human), sequence (Q86Y07 whole entry, looked up): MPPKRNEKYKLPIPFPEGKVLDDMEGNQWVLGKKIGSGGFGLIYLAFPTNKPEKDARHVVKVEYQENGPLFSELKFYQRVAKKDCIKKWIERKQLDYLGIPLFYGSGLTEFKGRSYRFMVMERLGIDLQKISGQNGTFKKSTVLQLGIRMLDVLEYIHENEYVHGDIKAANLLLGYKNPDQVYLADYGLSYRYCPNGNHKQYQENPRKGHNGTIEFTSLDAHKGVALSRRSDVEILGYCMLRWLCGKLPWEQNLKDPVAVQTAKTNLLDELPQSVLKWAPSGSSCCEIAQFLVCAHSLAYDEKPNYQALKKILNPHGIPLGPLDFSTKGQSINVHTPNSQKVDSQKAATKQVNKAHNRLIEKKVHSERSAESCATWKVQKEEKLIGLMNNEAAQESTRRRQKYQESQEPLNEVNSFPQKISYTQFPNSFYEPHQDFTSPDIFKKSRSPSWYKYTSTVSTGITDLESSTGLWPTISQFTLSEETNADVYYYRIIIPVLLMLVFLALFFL

MAP3K12 (human) = MAP3K12 (human) (UniProt Q12852); settings: compound 1.0 µM
MAP3K12 (human), sequence (Q12852 whole entry, looked up): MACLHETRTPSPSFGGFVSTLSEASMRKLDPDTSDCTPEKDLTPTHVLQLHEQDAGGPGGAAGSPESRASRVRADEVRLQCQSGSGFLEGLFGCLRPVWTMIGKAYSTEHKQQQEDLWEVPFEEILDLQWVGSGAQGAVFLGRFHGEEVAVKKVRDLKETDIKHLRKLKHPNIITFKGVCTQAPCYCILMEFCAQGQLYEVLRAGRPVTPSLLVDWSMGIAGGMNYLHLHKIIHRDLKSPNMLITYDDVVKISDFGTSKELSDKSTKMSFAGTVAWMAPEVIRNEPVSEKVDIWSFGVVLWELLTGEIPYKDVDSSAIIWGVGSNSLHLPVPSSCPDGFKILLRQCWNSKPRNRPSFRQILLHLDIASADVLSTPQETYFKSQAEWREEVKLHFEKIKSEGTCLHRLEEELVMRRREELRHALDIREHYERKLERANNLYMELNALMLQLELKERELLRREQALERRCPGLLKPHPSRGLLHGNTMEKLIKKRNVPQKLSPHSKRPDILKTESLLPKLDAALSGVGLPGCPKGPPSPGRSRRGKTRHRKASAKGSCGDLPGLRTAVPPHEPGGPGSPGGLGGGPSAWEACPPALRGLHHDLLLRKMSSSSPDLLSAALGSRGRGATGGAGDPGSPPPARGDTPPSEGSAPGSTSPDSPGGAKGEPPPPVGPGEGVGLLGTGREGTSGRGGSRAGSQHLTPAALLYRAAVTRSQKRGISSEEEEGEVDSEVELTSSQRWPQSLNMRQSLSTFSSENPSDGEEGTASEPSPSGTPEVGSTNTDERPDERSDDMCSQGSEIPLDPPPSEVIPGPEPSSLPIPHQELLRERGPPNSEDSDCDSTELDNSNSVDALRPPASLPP

CDK8 (human) = CDK8 (human) (UniProt P49336); settings: compound 1.0 µM
PLK3 (human) = PLK3 (human) (UniProt Q9H4B4); settings: compound 1.0 µM
PKN3 (M.tuberculosis) = PKN3 (M.tuberculosis) (UniProt Q6P5Z2); settings: compound 1.0 µM
STK25 (human) = STK25 (human) (UniProt O00506); settings: compound 1.0 µM
STK25 (human), sequence (O00506 whole entry, looked up): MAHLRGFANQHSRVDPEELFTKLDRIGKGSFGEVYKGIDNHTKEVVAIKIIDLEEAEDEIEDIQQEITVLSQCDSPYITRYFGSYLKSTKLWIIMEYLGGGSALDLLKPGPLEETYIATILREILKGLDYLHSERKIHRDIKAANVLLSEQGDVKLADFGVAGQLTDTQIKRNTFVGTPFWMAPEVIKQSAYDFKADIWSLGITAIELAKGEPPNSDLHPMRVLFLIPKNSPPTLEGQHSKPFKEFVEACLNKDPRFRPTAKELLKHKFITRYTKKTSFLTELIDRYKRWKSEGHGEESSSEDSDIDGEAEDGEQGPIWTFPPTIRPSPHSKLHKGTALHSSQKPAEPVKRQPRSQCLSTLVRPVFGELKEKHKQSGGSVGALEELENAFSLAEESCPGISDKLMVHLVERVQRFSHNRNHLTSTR

SYK (human) = SYK (human) (UniProt P43405); settings: compound 1.0 µM
PTK6 (human) = PTK6 (human) (UniProt Q13882); settings: compound 1.0 µM
PTK6 (human), sequence (Q13882 whole entry, looked up): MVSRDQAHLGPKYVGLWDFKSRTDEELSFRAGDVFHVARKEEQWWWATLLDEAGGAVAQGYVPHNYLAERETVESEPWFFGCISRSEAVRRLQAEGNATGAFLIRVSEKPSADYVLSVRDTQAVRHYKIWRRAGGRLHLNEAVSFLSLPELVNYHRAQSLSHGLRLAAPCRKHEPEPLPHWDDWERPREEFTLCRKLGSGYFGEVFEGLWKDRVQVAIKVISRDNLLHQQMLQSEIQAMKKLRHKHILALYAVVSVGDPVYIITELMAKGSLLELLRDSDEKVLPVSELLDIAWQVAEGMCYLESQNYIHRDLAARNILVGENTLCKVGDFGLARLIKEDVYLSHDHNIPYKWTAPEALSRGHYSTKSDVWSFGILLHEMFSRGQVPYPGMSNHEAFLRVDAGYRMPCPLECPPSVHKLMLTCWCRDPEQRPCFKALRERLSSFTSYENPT

CDK4 CCND3 (human) = CDK4 CCND3 (human) (UniProt P11802+P30281); settings: compound 1.0 µM
[3] = tested on: FGFR3 (human), P22607 [G697C]; settings: compound 1.0 µM
FGFR3 (human), P22607 [G697C], sequence (P22607 whole entry G697C, looked up): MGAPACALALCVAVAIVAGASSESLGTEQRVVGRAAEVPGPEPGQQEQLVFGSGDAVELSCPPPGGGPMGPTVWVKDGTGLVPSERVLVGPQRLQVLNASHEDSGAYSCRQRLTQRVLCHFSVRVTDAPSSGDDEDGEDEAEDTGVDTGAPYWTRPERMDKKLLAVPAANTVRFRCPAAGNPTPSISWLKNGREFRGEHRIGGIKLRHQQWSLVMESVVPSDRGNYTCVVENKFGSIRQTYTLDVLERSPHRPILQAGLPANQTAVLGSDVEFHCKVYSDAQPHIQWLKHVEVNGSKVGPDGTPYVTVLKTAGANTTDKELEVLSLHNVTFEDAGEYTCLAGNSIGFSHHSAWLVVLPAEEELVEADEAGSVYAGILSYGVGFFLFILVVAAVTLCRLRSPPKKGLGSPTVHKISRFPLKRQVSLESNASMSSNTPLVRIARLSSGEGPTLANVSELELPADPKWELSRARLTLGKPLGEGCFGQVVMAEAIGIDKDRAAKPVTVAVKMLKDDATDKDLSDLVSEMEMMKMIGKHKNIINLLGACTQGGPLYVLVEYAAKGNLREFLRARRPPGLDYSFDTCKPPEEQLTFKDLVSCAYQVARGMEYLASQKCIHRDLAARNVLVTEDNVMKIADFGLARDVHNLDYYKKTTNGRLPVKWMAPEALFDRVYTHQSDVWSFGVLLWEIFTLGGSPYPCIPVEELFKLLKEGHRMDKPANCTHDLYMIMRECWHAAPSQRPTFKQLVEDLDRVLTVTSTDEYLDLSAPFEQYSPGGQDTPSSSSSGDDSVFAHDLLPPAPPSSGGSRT

STK32A (human) = STK32A (human) (UniProt Q8WU08); settings: compound 1.0 µM
EPHA1 (human) = EPHA1 (human) (UniProt P21709); settings: compound 1.0 µM
EPHA1 (human), sequence (P21709 whole entry, looked up): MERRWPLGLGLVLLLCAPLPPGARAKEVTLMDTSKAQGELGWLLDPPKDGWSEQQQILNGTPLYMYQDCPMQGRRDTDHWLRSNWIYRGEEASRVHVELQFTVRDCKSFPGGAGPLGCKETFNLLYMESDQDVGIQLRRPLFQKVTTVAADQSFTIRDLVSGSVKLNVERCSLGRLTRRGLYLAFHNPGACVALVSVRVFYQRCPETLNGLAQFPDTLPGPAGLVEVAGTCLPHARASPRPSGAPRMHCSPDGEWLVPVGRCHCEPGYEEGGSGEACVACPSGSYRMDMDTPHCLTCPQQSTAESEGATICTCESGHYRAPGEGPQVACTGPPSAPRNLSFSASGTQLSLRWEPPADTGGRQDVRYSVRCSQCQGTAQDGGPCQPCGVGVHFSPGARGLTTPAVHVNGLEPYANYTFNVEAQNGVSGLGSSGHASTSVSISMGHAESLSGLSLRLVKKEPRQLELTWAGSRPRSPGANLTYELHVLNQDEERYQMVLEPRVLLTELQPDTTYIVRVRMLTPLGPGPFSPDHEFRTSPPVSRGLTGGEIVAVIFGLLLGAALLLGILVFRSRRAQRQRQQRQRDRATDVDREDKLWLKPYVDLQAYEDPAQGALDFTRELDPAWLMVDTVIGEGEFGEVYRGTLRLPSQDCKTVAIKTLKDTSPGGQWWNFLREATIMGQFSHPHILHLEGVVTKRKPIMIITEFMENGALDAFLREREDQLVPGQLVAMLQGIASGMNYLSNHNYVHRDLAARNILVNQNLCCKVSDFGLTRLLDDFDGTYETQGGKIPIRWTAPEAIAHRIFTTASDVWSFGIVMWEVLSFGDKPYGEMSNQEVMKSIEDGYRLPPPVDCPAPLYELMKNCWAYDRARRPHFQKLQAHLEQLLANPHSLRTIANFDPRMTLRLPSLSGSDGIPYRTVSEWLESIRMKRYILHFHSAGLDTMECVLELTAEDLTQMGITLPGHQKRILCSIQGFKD

YSK4 (human) = YSK4 (human) (UniProt Q56UN5); settings: for kinase still bound, per cent of control: compound 1.0 µM
[4] = target: JAK3 JH1 catalytic (human) (UniProt P52333); settings: compound 1.0 µM
MAST1 (human) = MAST1 (human) (UniProt Q9Y2H9); settings: compound 1.0 µM
[5] = tested on: KIT (human), P10721 [D816H]; settings: compound 1.0 µM
AXL (human) = AXL (human) (UniProt P30530); settings: compound 1.0 µM
TNK2 (human) = TNK2 (human) (UniProt Q07912); settings: compound 1.0 µM
MAP2K4 (human) = MAP2K4 (human) (UniProt P45985); settings: compound 1.0 µM
MAP2K4 (human), sequence (P45985 whole entry, looked up): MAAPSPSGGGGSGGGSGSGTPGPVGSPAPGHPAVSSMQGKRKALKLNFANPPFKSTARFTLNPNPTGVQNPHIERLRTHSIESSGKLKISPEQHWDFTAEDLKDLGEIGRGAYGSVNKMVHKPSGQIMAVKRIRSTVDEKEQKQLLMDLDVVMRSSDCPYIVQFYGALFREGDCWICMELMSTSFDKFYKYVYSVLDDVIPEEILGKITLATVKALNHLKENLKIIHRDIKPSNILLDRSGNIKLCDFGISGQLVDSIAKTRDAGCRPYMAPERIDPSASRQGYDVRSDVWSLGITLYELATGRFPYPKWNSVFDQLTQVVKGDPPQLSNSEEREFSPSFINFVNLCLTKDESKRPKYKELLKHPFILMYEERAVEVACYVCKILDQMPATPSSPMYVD

NEK4 (human) = NEK4 (human) (UniProt P51957); settings: compound 1.0 µM
PRKCI (human) = PRKCI (human) (UniProt P41743); settings: compound 1.0 µM
PKN2 (human) = PKN2 (human) (UniProt Q16513); settings: compound 1.0 µM
CSK (human) = CSK (human) (UniProt P41240); settings: compound 1.0 µM
MAP3K4 (human) = MAP3K4 (human) (UniProt Q9Y6R4); settings: compound 1.0 µM
[6] = tested on: PIK3CA (human), P42336 [H1047Y]; settings: compound 1.0 µM
FGFR3 (human) = FGFR3 (human) (UniProt P22607); settings: compound 1.0 µM
FGFR3 (human), sequence (P22607 whole entry, looked up): as the sequence (P22607 whole entry G697C, looked up) above, with C697G counted along it

SRPK1 (human) = SRPK1 (human) (UniProt Q96SB4); settings: compound 1.0 µM
MAP3K15 (human) = MAP3K15 (human) (UniProt Q6ZN16); settings: compound 1.0 µM
BMPR1A (human) = BMPR1A (human) (UniProt P36894); settings: compound 1.0 µM
HIPK1 (human) = HIPK1 (human) (UniProt Q86Z02); settings: compound 1.0 µM
[7] = tested on: MET (human), P08581 [Y1235D]; settings: compound 1.0 µM
AURKB (human) = AURKB (human) (UniProt Q96GD4); settings: compound 1.0 µM
CDK16 (human) = CDK16 (human) (UniProt Q00536); settings: compound 1.0 µM
CDK16 (human), sequence (Q00536 whole entry, looked up): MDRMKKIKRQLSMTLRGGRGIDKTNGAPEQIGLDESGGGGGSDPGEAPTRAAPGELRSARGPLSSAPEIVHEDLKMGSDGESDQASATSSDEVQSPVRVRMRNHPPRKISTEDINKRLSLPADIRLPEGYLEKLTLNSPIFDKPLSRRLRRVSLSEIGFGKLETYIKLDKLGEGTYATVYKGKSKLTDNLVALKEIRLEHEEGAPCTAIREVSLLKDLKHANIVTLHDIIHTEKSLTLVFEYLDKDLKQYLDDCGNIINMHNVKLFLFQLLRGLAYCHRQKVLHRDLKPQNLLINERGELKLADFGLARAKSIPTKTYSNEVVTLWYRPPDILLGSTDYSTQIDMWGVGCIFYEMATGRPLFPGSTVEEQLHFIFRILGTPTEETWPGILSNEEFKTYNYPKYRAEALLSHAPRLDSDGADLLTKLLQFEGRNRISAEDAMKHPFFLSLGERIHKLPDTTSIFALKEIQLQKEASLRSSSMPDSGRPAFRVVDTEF

Compound: CN(C)C/C=C/C(=O)Nc1cccc(C(=O)Nc2ccc(Nc3nccc(/C(C#N)=C4\Nc5ccccc5S4)n3)cc2)c1
- kinase still bound, per cent of control (CDK18 (human)): 100%
- kinase still bound, per cent of control (MAPK8 (human)): 0%
- kinase still bound, per cent of control (PI4KB (human)): 65%
- kinase still bound, per cent of control (PTK2 (human)): 100%
- kinase still bound, per cent of control (ADCK4 (human)): 48%
- kinase still bound, per cent of control (MAP3K11 (human)): 100%
- kinase still bound, per cent of control (MAPKAPK5 (human)): 100%
- kinase still bound, per cent of control [1]: 95%
- kinase still bound, per cent of control [2]: 100%
- kinase still bound, per cent of control (VRK2 (human)): 100%
- kinase still bound, per cent of control (MAP3K12 (human)): 100%
- kinase still bound, per cent of control (CDK8 (human)): 100%
- kinase still bound, per cent of control (PLK3 (human)): 59%
- kinase still bound, per cent of control (PKN3 (M.tuberculosis)): 53%
- kinase still bound, per cent of control (STK25 (human)): 100%
- kinase still bound, per cent of control (SYK (human)): 85%
- kinase still bound, per cent of control (PTK6 (human)): 100%
- kinase still bound, per cent of control (CDK4 CCND3 (human)): 100%
- kinase still bound, per cent of control [3]: 31%
- kinase still bound, per cent of control (STK32A (human)): 100%
- kinase still bound, per cent of control (EPHA1 (human)): 89%
- kinase still bound, per cent of control (YSK4 (human)): 59%
- kinase still bound, per cent of control [4]: 83%
- kinase still bound, per cent of control (MAST1 (human)): 100%
- kinase still bound, per cent of control [5]: 100%
- kinase still bound, per cent of control (AXL (human)): 100%
- kinase still bound, per cent of control (TNK2 (human)): 70%
- kinase still bound, per cent of control (MAP2K4 (human)): 100%
- kinase still bound, per cent of control (NEK4 (human)): 100%
- kinase still bound, per cent of control (PRKCI (human)): 100%
- kinase still bound, per cent of control (PKN2 (human)): 87%
- kinase still bound, per cent of control (CSK (human)): 100%
- kinase still bound, per cent of control (MAP3K4 (human)): 100%
- kinase still bound, per cent of control [6]: 100%
- kinase still bound, per cent of control (FGFR3 (human)): 100%
- kinase still bound, per cent of control (SRPK1 (human)): 91%
- kinase still bound, per cent of control (MAP3K15 (human)): 100%
- kinase still bound, per cent of control (BMPR1A (human)): 100%
- kinase still bound, per cent of control (HIPK1 (human)): 100%
- kinase still bound, per cent of control [7]: 100%
- kinase still bound, per cent of control (AURKB (human)): 83%
- kinase still bound, per cent of control (CDK16 (human)): 100%

Compound: Cc1cc(NC(=O)c2cccc(NC(=O)/C=C/CN(C)C)c2)ccc1Nc1nccc(-c2cccnc2)n1
- kinase still bound, per cent of control (CDK18 (human)): 100%
- kinase still bound, per cent of control (MAPK8 (human)): 0%
- kinase still bound, per cent of control (PI4KB (human)): 82%
- kinase still bound, per cent of control (PTK2 (human)): 11%
- kinase still bound, per cent of control (ADCK4 (human)): 93%
- kinase still bound, per cent of control (MAP3K11 (human)): 91%
- kinase still bound, per cent of control (MAPKAPK5 (human)): 74%
- kinase still bound, per cent of control [1]: 79%
- kinase still bound, per cent of control [2]: 100%
- kinase still bound, per cent of control (VRK2 (human)): 97%
- kinase still bound, per cent of control (MAP3K12 (human)): 99%
- kinase still bound, per cent of control (CDK8 (human)): 51%
- kinase still bound, per cent of control (PLK3 (human)): 66%
- kinase still bound, per cent of control (PKN3 (M.tuberculosis)): 100%
- kinase still bound, per cent of control (STK25 (human)): 92%
- kinase still bound, per cent of control (SYK (human)): 100%
- kinase still bound, per cent of control (PTK6 (human)): 100%
- kinase still bound, per cent of control (CDK4 CCND3 (human)): 60%
- kinase still bound, per cent of control [3]: 100%
- kinase still bound, per cent of control (STK32A (human)): 78%
- kinase still bound, per cent of control (EPHA1 (human)): 99%
- kinase still bound, per cent of control (YSK4 (human)): 65%
- kinase still bound, per cent of control [4]: 87%
- kinase still bound, per cent of control (MAST1 (human)): 97%
- kinase still bound, per cent of control [5]: 68%
- kinase still bound, per cent of control (AXL (human)): 77%
- kinase still bound, per cent of control (TNK2 (human)): 90%
- kinase still bound, per cent of control (MAP2K4 (human)): 70%
- kinase still bound, per cent of control (NEK4 (human)): 79%
- kinase still bound, per cent of control (PRKCI (human)): 93%
- kinase still bound, per cent of control (PKN2 (human)): 58%
- kinase still bound, per cent of control (CSK (human)): 100%
- kinase still bound, per cent of control (MAP3K4 (human)): 100%
- kinase still bound, per cent of control [6]: 96%
- kinase still bound, per cent of control (FGFR3 (human)): 100%
- kinase still bound, per cent of control (SRPK1 (human)): 99%
- kinase still bound, per cent of control (MAP3K15 (human)): 82%
- kinase still bound, per cent of control (BMPR1A (human)): 100%
- kinase still bound, per cent of control (HIPK1 (human)): 100%
- kinase still bound, per cent of control [7]: 100%
- kinase still bound, per cent of control (AURKB (human)): 82%
- kinase still bound, per cent of control (CDK16 (human)): 100%

Compound: CN(C)C/C=C/C(=O)Nc1cccc(C(=O)Nc2ccc(Nc3nccc(-c4cccnc4)n3)cc2)c1
- kinase still bound, per cent of control (CDK18 (human)): 100%
- kinase still bound, per cent of control (MAPK8 (human)): 0%
- kinase still bound, per cent of control (PI4KB (human)): 71%
- kinase still bound, per cent of control (PTK2 (human)): 100%
- kinase still bound, per cent of control (ADCK4 (human)): 69%
- kinase still bound, per cent of control (MAP3K11 (human)): 67%
- kinase still bound, per cent of control (MAPKAPK5 (human)): 68%
- kinase still bound, per cent of control [1]: 81%
- kinase still bound, per cent of control [2]: 82%
- kinase still bound, per cent of control (VRK2 (human)): 98%
- kinase still bound, per cent of control (MAP3K12 (human)): 72%
- kinase still bound, per cent of control (CDK8 (human)): 68%
- kinase still bound, per cent of control (PLK3 (human)): 75%
- kinase still bound, per cent of control (PKN3 (M.tuberculosis)): 69%
- kinase still bound, per cent of control (STK25 (human)): 58%
- kinase still bound, per cent of control (SYK (human)): 66%
- kinase still bound, per cent of control (PTK6 (human)): 77%
- kinase still bound, per cent of control (CDK4 CCND3 (human)): 61%
- kinase still bound, per cent of control [3]: 100%
- kinase still bound, per cent of control (STK32A (human)): 100%
- kinase still bound, per cent of control (EPHA1 (human)): 95%
- Kd (YSK4 (human)): 4.8 nM
- kinase still bound, per cent of control (YSK4 (human)): 0.1%
- kinase still bound, per cent of control [4]: 27%
- kinase still bound, per cent of control (MAST1 (human)): 77%
- kinase still bound, per cent of control [5]: 42%
- kinase still bound, per cent of control (AXL (human)): 100%
- kinase still bound, per cent of control (TNK2 (human)): 100%
- kinase still bound, per cent of control (MAP2K4 (human)): 78%
- kinase still bound, per cent of control (NEK4 (human)): 83%
- kinase still bound, per cent of control (PRKCI (human)): 100%
- kinase still bound, per cent of control (PKN2 (human)): 33%
- kinase still bound, per cent of control (CSK (human)): 97%
- kinase still bound, per cent of control (MAP3K4 (human)): 88%
- kinase still bound, per cent of control [6]: 100%
- kinase still bound, per cent of control (FGFR3 (human)): 78%
- kinase still bound, per cent of control (SRPK1 (human)): 50%
- kinase still bound, per cent of control (MAP3K15 (human)): 88%
- kinase still bound, per cent of control (BMPR1A (human)): 46%
- kinase still bound, per cent of control (HIPK1 (human)): 3.6%
- kinase still bound, per cent of control [7]: 100%
- kinase still bound, per cent of control (AURKB (human)): 63%
- kinase still bound, per cent of control (CDK16 (human)): 89%
